According to patent US20240041813A1, “VERY-LONG-CHAIN POLYUNSATURATED FATTY ACIDS, ELOVANOID HYDROXYLATED DERIVATIVES, AND METHODS OF USE” (priority 2020, published 2024):
“Also recorded” adds a separate entry of the source.

Tests used:
ACE-2 receptor = test: ACE-2 protein abundance by Jess capillary western in human alveoli in culture; assay type: cell-based; conditions: effect dependent on addition of IL-1b
Description: The Simple Protein platform Jess allows running a protein mixture in a capillary system that also serves as a probing matrix for the antibodies. This platform obviates the need to transfer the size-separated proteins onto a membrane with the consequent loss of sample. The sample amount that can be run in Jess is several times smaller than that required for Western blots. Therefore, high throughput is facilitated in cell cultures. The antibodies to this protein have been validated in our laboratory.
c.1.b. Protein abundance using Jess technology. The Simple Protein platform Jess allows running a protein mixture in a capillary electrophoretic system as a probing matrix for the antibodies (we refer to western blot as “Jess WB” here). This platform obviates the need to transfer the size-separated proteins onto a membrane with a potential loss of sample. The sample size run in Jess is several times smaller than that for classical WB. (400 ng protein/capillary column vs. 10 or more μg for classical WB). The proteins we assess will include ACE2, Furin, ADAM17, DPP4, TMPRSS2, protein surfactant D, and Cathepsin L. In addition, senescence and SASP proteins will also be analyzed. […]
ACE2 Protein abundance using Jess technology. […] Soluble protein concentration was determined by BCA assay (Thermo Fisher Scientific, Cat. 23225) and 0.4 μg used/reaction. […]

[1] = test system: receptor-binding domain (RBD) of the SARS-CoV-2 spike; assay type: cell-based, human
Alexa 594-RBD [2] = assay type: in vivo; conditions: rat cornea after alkali burn; 14 days treatment; Alexa 594-RBD 1 μg/eye, 3 times at day 15, examined a day later
Alexa 594-RBD [3] = test: HCEC challenged with IFNγ: Alexa 594-RBD binding (unbiased imaging, Imaris); assay type: cell-based, human; conditions: IFNγ 100 ng/ml and lipid mediators 200 nM for 12 h, images 24 h after RBD
Experimental: (§1) For screening the stimulation of receptor ACE2 by cytokines, the HCEC were cultured with KGM until 50-60% confluence. Then, changed to KBM containing IL-1β, -2, -6 and 8, IFN-α, -ε, and -γ or TNFα at 1, 10 or 100 ng/ml. The cells were harvested after 6 hours and analyze for the gene expression of Ace2. In other experiments, HCEC were stimulated with IFNγ, and thereafter, lipid mediators were added. For the Alexa 594-conjugated RBD binding, IFNγ was used as a cytokine trigger. At 12 hours after cytokine exposure and lipid mediator treatments, […] of labeled RBD was added to the medium. The evaluation of RBD binding was conducted 24 hours after.
Twenty-four hours after Alexa 594-RBD was added to the HCEC, the cells were washed with PBS (3×/5 min) and fixed with 4% paraformaldehyde for 30 minutes at RT. The HCEC were washed 2× with PBS and stained with Hoechst 33342 Solution (ThermoFisher Scientific, Cat. 62249) for 30 minutes at RT. Next, the HCEC were washed 2× with PBS before imaging. For unbiased data collection, 7 designated areas were defined in each well (FIG. 63) and captured with an Olympus FV3000 confocal laser scanning microscopy under “Multi Area Time Lapse” (MATL) mode. All images were acquired with the same parameters and Z-section range, converted and inputted in the Imaris software version 9.5.1. The threshold for the control images was defined by the HCEC without Alexa 594-conjugated RBD of S protein and using it as a threshold filter for the Imaris batch image processing function. The sum of total intensity for each image was used to evaluate the binding efficiency.

Cdkn2a (p16INK4a) = test: HCEC challenged with IFNγ: Cdkn2a gene expression; assay type: cell-based, human; conditions: IFNγ 100 ng/ml
Description: (§2) All experiments with human corneal epithelial cells were approved by the Institutional Review Board of LSUHNO and conducted in accordance with NIH guidelines. HCEC were kept frozen in the laboratory at passage 2544. Cells were maintained in keratinocyte growth (KGM) medium containing the keratinocyte basal medium (KBM) (Lonza: CC-3101) supplemented with bovine pituitary extract (BPE), hEGF, Insulin, Hydrocortisone and Gentamicin Sulfate-Amphotericin (GA-1000) (Lonza, Cat. CC-4131). For all experiments, cells were seeded at 30,000 cells/cm2.
as §1
Quantitative PCR was performed with the Biomark HD system (Fluidigm, San Francisco, CA, USA). Briefly, 200 ng of RNA was reverse-transcribed using iScript Reverse Transcription Supermix (Bio-Rad), and the cDNA was pre-amplified using the PreAmp Master Mix (PN 100-5580; Fluidigm). The cDNA was then subjected to Exonuclease I treatment and diluted 5 times in TE Buffer. The qPCR reaction mixture and primer reaction mixture were made and loaded into the Biomark 96.96 IFC™ (Integrated Fluidic Circuit). The enzyme reaction was mixed using Juno™ Controller (Fluidigm) and run using the cycling program of (i) 70° C. for 40 minutes followed by 60° C. for 30 seconds, (ii) hot start for 1 minute at 95° C., (iii) 30 cycles of denaturation at 96° C. for 5 seconds, and annealing at 60° C. for 20 seconds, and (iv) melting curves between 60° C. and 95° C. with 1° C. increments/3 seconds. The Ct value of target genes was normalized to the house-keeping genes Gapdh, Hprt1, and Tfrc before normalized to the vehicle group. Relative fold changes from the ΔΔCT calculation was used to make the graph.

ACE2 [4] = test: Rat cornea alkali burn: corneal RNA-seq, Ace2 gene expression; assay type: in vivo; conditions: rat cornea after alkali burn; eye drops 3 times/day for 14 days; RNA-seq day 14
Experimental: (§3) The rats were anesthetized by intraperitoneal injection of Ketamine (50-100 mg/kg) plus xylazine (5-10 mg/kg). A 4 mm diameter filter paper soaked in 1 N NaOH was placed on the central cornea of the right eye for 45 seconds, and then the eye was thoroughly washed with […] of saline. After injury, the rats were randomly divided into five treatment groups: vehicle; lipoxin A4 (LXA4) from Cayman Chemical (Ann Arbor, MI, USA); R,R Resolvin D6 isomer (RvD6i), R,R neuroprotection D (NPD1), and elovanoid (ELV)-N32. All lipid solutions were prepared at the final concentration of […] using PBS with the minimal contamination of ethanol by evaporating the ethanol and immediately dissolve the lipids in PBS, then vortex well for 2 min. Topical administration (20 μl) was done 3×/day for 14 days. The experiments were double-blinded with the lipid mediators coded during the whole experiments. At the end of the study, when all data was collected, the code was opened.
(§4) Injured corneas (n=5/condition) were harvested and homogenized with TRIzol (Thermo Fisher Scientific) on ice with a glass Dounce homogenizer. RNA sequencing was performed as described^14. Briefly, after mRNA extraction and determination of purity, 8 ng of total RNA was reverse transcribed, and total cDNAs were amplified using ISPCR primer, and the library was made with the Nextera XT DNA library preparation kit (Illumina, San Diego, CA, USA). The libraries were pooled with the same molarity and sequenced using the NextSeq 500/550 High Output Kit v2 (75 cycles, Illumina). After demultiplexing, RNA-seq data were aligned to the Rattus Norvegicus reference genome (.ensembl.org/pub/release-98/fasta/rattus_norvegicus/dna/) using the Subread package v2.0.1 alignment function39. The BAM files for sequencing data alignment were counted using featureCounts function of Subread tool^40 using the macOS Catalina. The raw count data were subjected to differential gene expression analysis using DESeq2 package for R^41 with the vehicle group as reference. The adjusted p-values were named as the false discover rate (FDR).

ACE2 [5] = test: HCEC challenged with IFNγ: Ace2 gene expression; assay type: cell-based, human; conditions: IFNγ 100 ng/ml
Description: as §2, §1
Quantitative PCR was performed with the Biomark HD system (Fluidigm, San Francisco, CA, USA). […]

injured rat cornea = test: Rat cornea alkali burn: corneal RNA-seq, cytokine storm, NFkB/inflammation, senescence, integrin and protease genes; assay type: in vivo; conditions: rat cornea, RNA-seq 14 days after injury
Experimental: as §3, §4

ACE2 [6] = test: Rat cornea alkali burn: ACE2 abundance by Jess capillary-based Western Blot; assay type: in vivo; conditions: rat cornea after alkali burn; eye drops 20 μl/eye, 3 times/day for 14 days; day 14
Description: Sprague-Dawley rats (8-week-old male) were obtained from Charles River Laboratories (Wilmington, MA, USA) and kept at the Animal Care of the Neuroscience Center of Excellence, Louisiana State University Health (LSUH; New Orleans, LA, USA). All animals were handled in compliance with the guidelines of the ARVO Statement for the Use of Animals in Ophthalmic and Vision Research, and the experimental protocol was approved by the Institutional Animal Care and Use Committee (IACUC) at LSUH.
as §3
Briefly, samples were lysed with RIPA buffer containing a protease inhibitor cocktail (Sigma, Cat. P8340). Cell debris was removed after 10 min centrifugation at 16,000×g. Protein concentration was determined by BCA assay (Thermo Fisher Scientific, Cat. 23225) and 1 μg used/reaction. Fluorescent Master Mix was mixed with 40 mM DTT, and the mixture was added to each sample to provide a denaturing and reducing environment. Samples were heated at 95° C./5 min, and 3 μL of each sample were loaded. The 12-230 kDa cartridge (Protein Simple—#SM-W004) was used. Primary antibodies were diluted in antibody diluent 2 buffer (Protein Simple, #042-203) while the working solution of secondary antibodies was provided by the company (Protein Simple, #042-206). Then, the filled plate was spin-down for 10 min at 1,000×g to remove bubbles and plate, and capillaries were loaded into the Jess machine. For data analysis, the area of spectra that matched the molecular weight of the target protein was used. To reduce the coefficient variant, we analyzed the GAPDH for each capillary. The ratio of the targeted protein to GAPDH was used for statistical comparisons. For visualization, the artificial lanes generated from spectra volume was used.

[7] = test system: human corneal epithelial cells (HCEC); test: HCEC challenged with IFNγ: SASP secretome (β-Gal staining); assay type: cell-based; conditions: HCEC 24 h after IFN-γ challenge

## CC/C=C\CC(O)\C=C/C=C/C=C/C(O)C/C=C\C/C=C\CCCCCCCCCCCCCCC(=O)O [ELV-N34, (16Z,19Z,22R,23E,25E,27Z,29S,31Z)-22,29-dihydroxytetra-triaconta-16,19,23,25,27,31-hexaenoic acid]
ACE-2 receptor
  expression of the ACE-2 receptor (protein abundance, Jess): downregulate
[1]
  RBD protein internalization (RBD located below the membrane line): decrease

## CC/C=C\C[C@@H](O)/C=C/C=C\C/C=C\C/C=C\C=C\[C@H](O)CCC(=O)O [RvD6i]
Alexa 594-RBD [2]
  binding of Alexa 594-RBD to injured cornea: decrease; also recorded: counteracted
Alexa 594-RBD [3]
  IFNγ-stimulated Alexa 594-RBD binding: attenuated
Cdkn2a (p16INK4a)
  Cdkn2a activation: decrease
ACE2 [4]
  Ace2 gene expression levels: decrease
ACE2 [5]
  IFNγ-triggered Ace2 activation: markedly attenuated; also recorded: suppressed
Injured rat cornea
  51 injury-upregulated genes (cytokines, SASP, NFkB inflammatory): most are inhibited
  Il6 and Vegfa expression: reduced
  integrin gene expression (Itga5 and Itgb 1): significantly decreased; also recorded: decrease
  transcriptomic profile in PCA plot relative to control cornea: nearest to the normal cornea
ACE2 [6]
  ACE2 abundance (protein, normalized to GAPDH): decrease
[7]
  senescence programming genes and SASP secretome activation (β-Gal): blocked; also recorded: suppressed
